Test system: AVEFA, LOLMU, ALOMY, SETVI
Experiment: Assay 3—Glasshouse assay for pinoxaden antagonism (grass species)
Details: used with Axial (pinoxaden) + Adigor adjuvant
Procedure: A suitable glasshouse assay/test, to determine whether or not the “first herbicide”, when in a salt-free form and when not contained within polymeric microparticles, antagonises the herbicidal activity of pinoxaden, is as follows.
The troughs are watered appropriately and are not supplied with additional nutrients throughout the course of the test. […] The pinoxaden is typically used in a commercial formulation applied with recommended tank-mix adjuvants.
Crop injury (e.g. to wheat) is recorded at both 7 and 14-16 days after application; weed efficacy is only recorded at 14-16 days after application. A visual, 0-100% assessment scale is used, where 0%=no visible effects and 100%=complete plant destruction.
For example, dicamba can be applied at ca. 240 g/ha (or alternatively at from 100 to 140, e.g. ca. 120, g/ha), measured as the free acid; MCPA and/or 2,4-D can be applied at ca. 500 g/ha, measured as the free acid.
Alternatively, application rates may be identified from journal, book and/or patent publications for the specific active ingredient under test.
Antagonism of pinoxaden may then be determined by the application of Colby's formula:
(Observed 1+Observed 2)−((Observed 1×Observed 2)/100),
Where observed values are smaller than the calculated expected value, antagonism is deemed to have occurred.

Row | SMILES | antagonism of pinoxaden grass-herbicidal activity (in words)
1 | COc1c(Cl)ccc(Cl)c1C(=O)O [dicamba acid, 3,6-dichloro-2-methoxybenzoic acid] | some reductions in pinoxaden herbicidal activity on the grassy weed species AVEFA, ALOMY and LOLMU
2 | Cc1cc(Cl)ccc1OCC(=O)O [MCPA acid, (4-chloro-2-methylphenoxy)acetic acid] | some reductions in pinoxaden herbicidal activity on the grassy weed species AVEFA, ALOMY and LOLMU
3 | O=C(O)COc1ccc(Cl)cc1Cl [2,4-D acid, (2,4-dichlorophenoxy)acetic acid] | some reductions in pinoxaden herbicidal activity on the grassy weed species AVEFA, ALOMY, SETVI and LOLMU

From patent US20140221206A1, “HERBICIDAL COMPOSITION COMPRISING POLYMERIC MICROPARTICLES CONTAINING A HERBICIDE” (SYNGENTA LIMITED, priority 2011, published 2014)
